Laboratory results published in patent US5187082A, “Process for producing A83850 antibiotics” (Eli Lilly and Company, priority 1990, dated 1993).
In brackets after ≈: the same amount, converted by molar mass. Positions of bridges follow the written chain, without caps; N, C: chain ends. Non-standard residues stand in square brackets, D forms with d. Residues, ends and D or L forms follow the SMILES beside them. *: point of attachment. Ileψ(thiazoline)Cys = CC[C@H](C)[C@H](N)C1=N[C@H](C(=O)*)CS1; dOrn = NCCC[C@@H](N)C(=O)O

Legend:
[1] = system: Fusobacterium necrophorum; conditions: anaerobe, agar dilution, read after 24-hour incubation
Bacteriodes fragilis = assay: Activity against anaerobic bacteria, agar-dilution MIC; type: cell-based; conditions: Bacteriodes fragilis; anaerobe, agar dilution, read after 24-hour incubation
[2] = system: Peptococcus asaccharolyticus; assay: as above; conditions: Peptococcus asaccharolyticus; anaerobe, agar dilution, read after 24-hour incubation
Bacteriodes vulgatis = assay: as above; conditions: Bacteriodes vulgatis; anaerobe, agar dilution, read after 24-hour incubation
Eubacterium aerofaciens = conditions: anaerobe, agar dilution, read after 24-hour incubation
Peptococcus prevoti = assay: Activity against anaerobic bacteria, agar-dilution MIC; conditions: Peptococcus prevoti; anaerobe, agar dilution, read after 24-hour incubation
Streptococcus pneumoniae = assay: In vivo activity against experimentally-induced infection in mice; conditions: doses administered subcutaneously to mice 1 and 4 hours postinfection
Procedure: (§1) The A83850 antibiotics have also shown in vivo antimicrobial activity against experimentally-induced infections in laboratory animals. When two doses of test compound were administered to mice experimentally infected with the test organism, the activity observed was measured as an ED50 value [effective dose in mg/kg to protect 50% of the test animals: see Warren Wick, et al., J. Bacteriol. 81, 233-235 (1961)].
(§2) ^a mg/kg × 2; doses administered subcutaneously to mice 1 and 4

Streptococcus pyogenes = assay: as above; conditions: doses administered subcutaneously to mice 1 and 4 hours postinfection
Procedure: as §1, §2

Staphylococcus aureus = assay: as above; conditions: doses administered subcutaneously to mice 1 and 4 hours postinfection
Procedure: as §1, §2

Clostridium septicum = conditions: anaerobe, agar dilution, read after 24-hour incubation
Bacteroides corrodens = assay: Activity against anaerobic bacteria, agar-dilution MIC; type: cell-based; conditions: Bacteroides corrodens; anaerobe, agar dilution, read after 24-hour incubation
[3] = system: Staphylococcus aureus X400; type: cell-based; conditions: Staphylococcus aureus X400; agar dilution
Procedure: (§3) The MIC's in Table VII were determined by standard agar-dilution assays.

[4] = system: Enterococcus faecalis 2041; type: cell-based; conditions: Enterococcus faecalis 2041; agar dilution
Procedure: as §3

[5] = system: Staphylococcus epidermidis 222; type: cell-based; conditions: Staphylococcus epidermidis 222; agar dilution
Procedure: as §3

Enterococcus faecium X66 = type: cell-based; conditions: Enterococcus faecium X66; agar dilution
Procedure: as §3

[6] = system: Staphylococcus epidermidis 270; type: cell-based; conditions: Staphylococcus epidermidis 270; agar dilution
Procedure: as §3

[7] = system: Staphylococcus aureus V41; type: cell-based; conditions: Staphylococcus aureus V41; agar dilution
Procedure: as §3

[8] = system: Streptococcus pyogenes C203; type: cell-based; conditions: Streptococcus pyogenes C203; agar dilution
Procedure: as §3

[9] = system: Staphylococcus aureus X1.1; type: cell-based; conditions: Staphylococcus aureus X1.1; agar dilution
Procedure: as §3

[10] = system: Streptococcus pneumoniae Park 1; assay: microbe, parasite or virus in culture; type: cell-based; conditions: Streptococcus pneumoniae Park 1; agar dilution
Procedure: as §3

[11] = system: Bacteriodes thetaiotaomicron; assay: Activity against anaerobic bacteria, agar-dilution MIC; conditions: Bacteriodes thetaiotaomicron; anaerobe, agar dilution, read after 24-hour incubation
[12] = system: Bacteriodes melaninogenicus; assay: as above; type: cell-based; conditions: Bacteriodes melaninogenicus; anaerobe, agar dilution, read after 24-hour incubation
[13] = system: Peptostreptococcus anaerobius; assay: as above; type: cell-based; conditions: anaerobe, agar dilution, read after 24-hour incubation
Clostridium difficile = assay: as above; conditions: Clostridium difficile; anaerobe, agar dilution, read after 24-hour incubation
[14] = system: Peptostreptococcus intermedius; assay: as above; type: cell-based; conditions: Peptostreptococcus intermedius; anaerobe, agar dilution, read after 24-hour incubation
Propionibacterium acnes = assay: as above; type: cell-based; conditions: Propionibacterium acnes; anaerobe, agar dilution, read after 24-hour incubation
Clostridium perfringens = conditions: anaerobe, agar dilution, read after 24-hour incubation
Fusobacterium symbiosum = conditions: anaerobe, agar dilution, read after 24-hour incubation
[15] = system: Culture A83850 (Amycolatopsis albus NRRL 18532); assay: Resistance of culture A83850 to antibiotics, sensitivity discs on seeded ISP No. 2 agar plates; type: cell-based; conditions: disc content printed per antibiotic
Procedure: Resistance to antibiotics was measured by padding antibiotic sensitivity discs onto the surface of seeded ISP No. 2 agar plates.

Compound | ED50 Value (Streptococcus pneumoniae) [mg/kg × 2] | ED50 Value (Streptococcus pyogenes) [mg/kg × 2] | ED50 Value (Staphylococcus aureus) [mg/kg × 2] | MIC [3] [µg/mL] | MIC [4] [µg/mL] | MIC [5] [µg/mL] | MIC (Enterococcus faecium X66) [µg/mL] | MIC [6] [µg/mL] | MIC [7] [µg/mL] | MIC [8] [µg/mL] | MIC [9] [µg/mL] | MIC [10] [µg/mL] | Resistance or inhibition of culture A83850 by antibiotic disc [15] | further results
CC(C)C[C@H](C(=O)N[C@H]1C(=O)N[C@@H](CC(N)=O)C(=O)N[C@H]2C(=O)N[C@H]3C(=O)N[C@H](C(=O)N[C@H](C(=O)O)c4cc(O)cc(O)c4-c4cc3ccc4O)[C@H](O)c3ccc(c(Cl)c3)Oc3cc2cc(c3O[C@@H]2O[C@H](CO)[C@@H](O)[C@H](O)[C@H]2O[C@H]2C[C@](C)(N)C(=O)[C@H](C)O2)Oc2ccc(cc2Cl)[C@H]1O)N(C)C [A83850A] | 2.73 | 3.62 | 2.87 | 2.0 (≈ 1.37 µM) | 8.0 (≈ 5.47 µM) | 2.0 (≈ 1.37 µM) | 2.0 (≈ 1.37 µM) | 4.0 (≈ 2.74 µM) | 2.0 (≈ 1.37 µM) | 1.0 (≈ 0.684 µM) | 1.0 (≈ 0.684 µM) | 1.0 (≈ 0.684 µM) |  | MIC [1]: 1.0 µg/mL (≈ 0.684 µM); MIC (Bacteriodes fragilis): 16.0 to 32.0 µg/mL; MIC [2]: 16 µg/mL (≈ 10.9 µM); MIC (Bacteriodes vulgatis): 16 µg/mL (≈ 10.9 µM); MIC (Eubacterium aerofaciens): 2 µg/mL (≈ 1.37 µM); MIC (Peptococcus prevoti): 16 µg/mL (≈ 10.9 µM); MIC (Clostridium septicum): 2 µg/mL (≈ 1.37 µM); MIC (Bacteroides corrodens): 32 µg/mL (≈ 21.9 µM); MIC [11]: 64 µg/mL (≈ 43.8 µM); MIC [12]: 16 µg/mL (≈ 10.9 µM); MIC [13]: 32 µg/mL (≈ 21.9 µM); MIC (Clostridium difficile): 4 µg/mL (≈ 2.74 µM); MIC [14]: 2.0 µg/mL (≈ 1.37 µM); MIC (Propionibacterium acnes): 8.0 µg/mL (≈ 5.47 µM); MIC (Clostridium perfringens): 2 µg/mL (≈ 1.37 µM); MIC (Fusobacterium symbiosum): 4 µg/mL (≈ 2.74 µM)
CN[C@H](CC(C)C)C(=O)N[C@H]1C(=O)N[C@@H](CC(N)=O)C(=O)N[C@H]2C(=O)N[C@H]3C(=O)N[C@H](C(=O)N[C@H](C(=O)O)c4cc(O)cc(O)c4-c4cc3ccc4O)[C@H](O)c3ccc(c(Cl)c3)Oc3cc2cc(c3O[C@@H]2O[C@H](CO)[C@@H](O)[C@H](O)[C@H]2O[C@H]2C[C@](C)(N)C(=O)[C@H](C)O2)Oc2ccc(cc2Cl)[C@H]1O [A83850B] | 0.98 | 2.19 | 2.87 | 1.0 (≈ 0.691 µM) | 4.0 (≈ 2.76 µM) | 1.0 (≈ 0.691 µM) | 1.0 (≈ 0.691 µM) | 1.0 (≈ 0.691 µM) | 1.0 (≈ 0.691 µM) | 0.5 (≈ 0.345 µM) | 0.5 (≈ 0.345 µM) | 0.125 (≈ 0.0864 µM) |  | MIC [1]: 1.0 µg/mL (≈ 0.691 µM); MIC (Bacteriodes fragilis): 16.0 to 32.0 µg/mL; MIC [2]: 2 µg/mL (≈ 1.38 µM); MIC (Bacteriodes vulgatis): 16 µg/mL (≈ 11.1 µM); MIC (Eubacterium aerofaciens): 2 µg/mL (≈ 1.38 µM); MIC (Peptococcus prevoti): 2 µg/mL (≈ 1.38 µM); MIC (Clostridium septicum): 1.0 µg/mL (≈ 0.691 µM); MIC (Bacteroides corrodens): 32 µg/mL (≈ 22.1 µM); MIC [11]: 64 µg/mL (≈ 44.2 µM); MIC [12]: 32 µg/mL (≈ 22.1 µM); MIC [13]: 16 µg/mL (≈ 11.1 µM); MIC (Clostridium difficile): 2 µg/mL (≈ 1.38 µM); MIC [14]: 2.0 µg/mL (≈ 1.38 µM); MIC (Propionibacterium acnes): 8.0 µg/mL (≈ 5.53 µM); MIC (Clostridium perfringens): 2 µg/mL (≈ 1.38 µM); MIC (Fusobacterium symbiosum): 2 µg/mL (≈ 1.38 µM)
CC(C)C[C@H](C(=O)N[C@H]1C(=O)N[C@@H](CC(N)=O)C(=O)N[C@H]2C(=O)N[C@H]3C(=O)N[C@H](C(=O)N[C@H](C(=O)O)c4cc(O)cc(O)c4-c4cc3ccc4O)[C@H](O)c3ccc(c(Cl)c3)Oc3cc2cc(c3O[C@@H]2O[C@H](CO)[C@@H](O)[C@H](O)[C@H]2O[C@H]2C[C@](C)(N)[C@@H](O)[C@H](C)O2)Oc2ccc(cc2Cl)[C@H]1O)N(C)C [Reduced A83850A] | 3.88 | 2.30 | 7.10 | 2.0 (≈ 1.37 µM) | 8.0 (≈ 5.47 µM) | 4.0 (≈ 2.73 µM) | 2.0 (≈ 1.37 µM) | 4.0 (≈ 2.73 µM) | 2.0 (≈ 1.37 µM) | 2.0 (≈ 1.37 µM) | 2.0 (≈ 1.37 µM) | 0.25 (≈ 0.171 µM) |  | 
CN[C@H](CC(C)C)C(=O)N[C@H]1C(=O)N[C@@H](CC(N)=O)C(=O)N[C@H]2C(=O)N[C@H]3C(=O)N[C@H](C(=O)N[C@H](C(=O)O)c4cc(O)cc(O)c4-c4cc3ccc4O)[C@H](O)c3ccc(c(Cl)c3)Oc3cc2cc(c3O[C@@H]2O[C@H](CO)[C@@H](O)[C@H](O)[C@H]2O[C@H]2C[C@](C)(N)[C@@H](O)[C@H](C)O2)Oc2ccc(cc2Cl)[C@H]1O [Reduced A83850B] | 1.99 | 1.36 | 2.12 | 1.0 (≈ 0.69 µM) | 4.0 (≈ 2.76 µM) | 2.0 (≈ 1.38 µM) | 1.0 (≈ 0.69 µM) | 2.0 (≈ 1.38 µM) | 1.0 (≈ 0.69 µM) | 0.5 (≈ 0.345 µM) | 1.0 (≈ 0.69 µM) | 0.125 (≈ 0.0863 µM) |  | 
CC[C@H](C)[C@H](N)C1=N[C@H](C(=O)N[C@@H](CC(C)C)C(=O)N[C@H](CCC(=O)O)C(=O)N[C@H](C(=O)N[C@H]2CCCCNC(=O)[C@H](CC(N)=O)NC(=O)[C@@H](CC(=O)O)NC(=O)[C@H](Cc3cnc[nH]3)NC(=O)[C@@H](Cc3ccccc3)NC(=O)[C@H]([C@@H](C)CC)NC(=O)[C@@H](CCCN)NC2=O)[C@@H](C)CC)CS1 [bacitracin] ({Ileψ(thiazoline)Cys}-L[dE]IK[dOrn]I[dF]H[dD]N; lactam 4-C) |  |  |  |  |  |  |  |  |  |  |  |  | resistant | 
CC(=O)OCC1=C(C(=O)O)N2C(=O)[C@@H](NC(=O)Cc3cccs3)[C@H]2SC1 [cephalothin] |  |  |  |  |  |  |  |  |  |  |  |  | inhibited | 
CCC[C@@H]1C[C@@H](C(=O)N[C@@H]([C@H]2O[C@H](SC)[C@H](O)[C@@H](O)[C@H]2O)[C@@H](C)O)N(C)C1 [lincomycin] |  |  |  |  |  |  |  |  |  |  |  |  | inhibited | 
